ChEMBL document CHEMBL5543091, “Exploring structural determinants of neuroprotection bias on novel glypromate conjugates with bioactive amines” (2024)
Values joined by “and” are separate entries in the source; they are usually repeats but may differ in a detail not shown here. Equal values may be shown once. Active and inactive are the calls of the source. No cut-off for these calls is given here.

How the values were obtained:
SH-SY5Y [1] = test: Cytotoxicity against non-differentiated human SH-SY5Y cells assessed as reduction in cell viability measured after 24 hrs by MTT reduction assay relative to control; assay type: functional; parameters: concentration or dose not given beside the values
SH-SY5Y [2] = test: Neuroprotective activity in Amyloid beta(25 to 35)-induced non-differentiated human SH-SY5Y cells assessed as fold increase in protein aggregation reduction 100 uM incubated for 24 hrs by ThT fluorescence assay; assay type: functional
SH-SY5Y [3] = test: Neuroprotective activity against Amyloid beta(25 to 35)-induced cell injury in non-differentiated human SH-SY5Y cells assessed as reduction in formation of protein aggregates at 100 uM incubated for 24 hrs by ThT fluorescence assay; assay type: functional; parameters: scale not given: the % may be the effect or the level left
SH-SY5Y [4] = test: Neuroprotective activity against Amyloid beta(25 to 35)-induced cell injury in non-differentiated human SH-SY5Y cells assessed as reduction in formation of protein aggregates at 100 uM incubated for 24 hrs by fluorescence microscopy based analysis; assay type: functional
SH-SY5Y [5] = test: Cytotoxicity against differentiated human SH-SY5Y cells assessed as reduction in cell viability at 100 uM measured after 48 hrs by MTT reduction assay relative to control; assay type: functional
SH-SY5Y [6] = test: Neuroprotective activity against 6-OHDA-induced cytotoxicity in differentiated human SH-SY5Y cells at 100 uM incubated for 48 hrs followed by exposure to 6-OHDA by MTT reduction assay (reference value: 61.50+/-7.43%); assay type: functional; parameters: scale not given: the % may be the effect or the level left
SH-SY5Y [7] = test: Neuroprotective activity against 6-OHDA-induced cytotoxicity in differentiated human SH-SY5Y cells at 100 uM incubated for 48 hrs followed by exposure to 6-OHDA in presence of memantine by MTT reduction assay; assay type: functional, cell-based

| Structure (SMILES) | Activity (SH-SY5Y [1]) [%] | Activity (SH-SY5Y [5]) [%] | further results |
| --- | --- | --- | --- |
| COC(=O)[C@H](CCC(=O)NC12CC3CC(C)(CC(C)(C3)C1)C2)NC(=O)[C@@H]1CCCN1C(=O)CNC(=O)OC(C)(C)C | <85 | – | – |
| COC(=O)[C@H](CCC(=O)N[C@@H]1CCc2ccccc21)NC(=O)[C@@H]1CCCCN1C(=O)CN.O=C(O)C(F)(F)F | 89.37 | – | – |
| COC(=O)[C@H](CCC(=O)N[C@@H]1CCc2ccccc21)NC(=O)[C@@H]1CCCN1C(=O)CN.O=C(O)C(F)(F)F | 94.4 | 98.02 | fold change (FC) (SH-SY5Y [2]): 3.6; Activity (SH-SY5Y [3]): 57.42%; Activity (SH-SY5Y [4]): Active |
| COC(=O)[C@H](CCC(=O)NC12CC3CC(C)(CC(C)(C3)C1)C2)NC(=O)[C@@H]1CCCN1C(=O)CN(C)C | <85 | 99.94 | Activity (SH-SY5Y [6]): 65.16% |
| COC(=O)[C@H](CCC(=O)N[C@@H]1CCc2ccccc21)NC(=O)[C@@H]1CCCCN1C(=O)CN(C)C | – | – | Activity (SH-SY5Y [1]; 24 h): 97.03% and <85% |
| NCC(=O)N1CCC[C@H]1C(=O)N[C@@H](CCC(=O)O)C(=O)O | – | – | Activity (SH-SY5Y [3]): 87.78%; Activity (SH-SY5Y [7]): inactive |
| COC(=O)[C@H](CCC(=O)NC12CC3CC(C)(CC(C)(C3)C1)C2)NC(=O)[C@@H]1CCCCN1C(=O)CN(C)C | <85 | <25 | – |
| COC(=O)CC[C@H](NC(=O)[C@@H]1CCCCN1C(=O)CNC(=O)OC(C)(C)C)C(=O)NC12CC3CC(C)(CC(C)(C3)C1)C2 | <85 | 94.5 | – |
| COC(=O)[C@H](CCC(=O)NC12CC3CC(CC(C3)C1)C2)NC(=O)[C@@H]1CCCCN1C(=O)CN.O=C(O)C(F)(F)F | 87.9 | – | – |
| COC(=O)CC[C@H](NC(=O)[C@@H]1CCCN1C(=O)CN)C(=O)NC12CC3CC(C)(CC(C)(C3)C1)C2.O=C(O)C(F)(F)F | <85 | 97.3 | – |
| COC(=O)CC[C@H](NC(=O)[C@@H]1CCCCN1C(=O)CN(C)C)C(=O)NC12CC3CC(C)(CC(C)(C3)C1)C2 | <85 | <25 | – |
| COC(=O)[C@H](CCC(=O)NC12CC3CC(C)(CC(C)(C3)C1)C2)NC(=O)[C@@H]1CCCCN1C(=O)CNC(=O)OC(C)(C)C | <85 | 91.53 | – |
| COC(=O)CC[C@H](NC(=O)[C@@H]1CCCN1C(=O)CNC(=O)OC(C)(C)C)C(=O)NC12CC3CC(C)(CC(C)(C3)C1)C2 | <85 | – | – |
| COC(=O)CC[C@H](NC(=O)[C@@H]1CCCCN1C(=O)CN)C(=O)N[C@@H]1CCc2ccccc21.O=C(O)C(F)(F)F | 94.96 | 98.85 | Activity (SH-SY5Y [3]): 129.25% |
| COC(=O)[C@H](CCC(=O)NC12CC3CC(CC(C3)C1)C2)NC(=O)[C@@H]1CCCCN1C(=O)CN(C)C | <85 | <25 | – |
| COC(=O)[C@H](CCC(=O)NC12CC3CC(C)(CC(C)(C3)C1)C2)NC(=O)[C@@H]1CCCN1C(=O)CN.O=C(O)C(F)(F)F | <85 | – | – |
| COC(=O)CC[C@H](NC(=O)[C@@H]1CCCCN1C(=O)CN(C)C)C(=O)N[C@@H]1CCc2ccccc21 | – | 94.5 | Activity (SH-SY5Y [1]; 24 h): 95.12% and <85% |
| COC(=O)[C@H](CCC(=O)N[C@@H]1CCc2ccccc21)NC(=O)[C@@H]1CCCN1C(=O)CN(C)C | 99.51 | 99.49 | Activity (SH-SY5Y [3]): 81.51% |
| COC(=O)CC[C@H](NC(=O)[C@@H]1CCCN1C(=O)CN)C(=O)NC12CC3CC(CC(C3)C1)C2.O=C(O)C(F)(F)F | 94.84 | 109.73 | Activity (SH-SY5Y [6]): 67.28% |
